Results reported in patent US20170143748A1, “ANTI-TUMOR PHARMACEUTICAL APPLICATION OF PENTACYCLIC TRITERPENE SAPONIN COMPOUNDS OF SZECHUAN MELANDIUM ROOT” (priority 2014, published 2017).
Read-outs that look alike come from different tables or passages of the source.

How the values were obtained:
A875 = test: MTT inhibition of tumor cells in vitro (Example 3); type: cell-based, Human; conditions: Homo sapiens, A875, 40 μg/mL, 48 hours, read-out: Inhibition rate, A875
Description: (§1) Human resources tumor cell line […], […], HT29, MCF-7 and A875 were provided by Cancer Hospital, Chinese Academy of Medical Sciences.
(§2) Cells were passaged every 2 or 3 days, and all the experiments were carried out on exponentially growing cells.
(§3) All cells were cultured in a humidified atmosphere (5% CO2 and […]), and passaged every 2 or 3 days. Cells were harvested on exponentially growing phase, and cell suspension was prepared with 2×10^4 cells/mL, added with 100 μL per well of 96-well plates, and cultured for 24 h in incubator. 100 μL medium without cells was added per well as blank group.
(§4) Compound (1), (2), (3), (4), (7) or (8) was dissolved in DMSO respectively, and diluted with 1640 medium at a final concentration of 400 μg/mL, so as to that of the Cisplatin. Cells were divided into 9 groups, they were blank group, model group, Compound (1), (2), (3), (4), (7) and (8) groups, and Cisplatin group as the positive one, 6 wells per group.
(§5) Before drug administration, supernatant of each well was removed and fresh 1640 medium was added, 180 μL per well. Compounds and Cisplatin were added with 20 μL per well respectively at a final concentration of 40 μg/mL. Wells of blank and model groups were added with 0.5% DMSO, 20 μL per well. 48 hours later, 20 μL MTT was added per well and continued to culture for 4 hours, then the supernatant was replaced carefully and DMSO was added with 150 μL per well to end the experiment. The 96-well plates were shaken for 10 mins and read the absorbance at 490 nm. The Inhibition rate was calculated.
(§6) Inhibition rate=[(ODmodel−ODblank)−(ODdrugs−ODblank)]/(ODmodel−ODblank)×100%
(§7) The MTT experiment was repeated three times.

BGC823 = test: MTT inhibition of tumor cells in vitro (Example 3); type: cell-based, Human; conditions: Homo sapiens, BGC-823, 48 h, 40 μg/mL, read-out: Inhibition rate, BGC823
Description: as §1, §2, §3, §4, §5, §6, §7

HT29 = test: MTT inhibition of tumor cells in vitro (Example 3); type: cell-based, Human; conditions: Homo sapiens, HT-29, 48 h, 40 μg/mL, read-out: Inhibition rate, HT29
Description: as §1, §2, §3, §4, §5, §6, §7

MCF-7 = test: MTT inhibition of tumor cells in vitro (Example 3); type: cell-based, Human; conditions: Homo sapiens, MCF7, 40 μg/mL, 48 hours, read-out: Inhibition rate, MCF-7
Description: as §1, §2, §3, §4, §5, §6, §7

HepG2 [1] = test: Inhibitory activity and IC50 to HepG2 at different time of treatment (MTT, Example 4); type: cell-based, Human; conditions: for IC50 / inhibition at 5 µg/mL / inhibition at 10 µg/mL / inhibition at 20 µg/mL / inhibition at 40 µg/mL / inhibition at 80 µg/mL: Homo sapiens; for IC50: read-out: IC50 to HepG2
Description: (§8) Human resources hepatoma cell line HepG2 was provided by Cancer Hospital, Chinese Academy of Medical Sciences. […] Cells were passaged every 2 or 3 days, and all the experiments were carried out on exponentially growing cells.
Cells were harvested in good growth status and cell suspension was prepared with 2×10^4 cells/mL, added 100 μL per well of 96-well plates, and cultured for 24 h in the incubator. 100 μL liquid medium with no cell was added per well as blank group.
3 plates were used as parallel test to culture cells at different period.
Before medication, supernatant of each well was removed and fresh 1640 medium was added, 180 μL per well. […] Wells of blank and model groups were added with 0.5% DMSO, 20 μL per well. After finished adding drugs, cells were incubated for 24 and 48 h respectively. At the end of incubation, 20 μL MTT was added per well […]. The supernatant was removed carefully and 150 μL DMSO was added per well. After shaken for 10 mins, the absorbance was read at 490 nm and the inhibition rate was calculated with the formula below.
as §6
IC50 was calculated with Bliss method.
as §7

HepG2 [2] = test: Detection of apoptosis (Annexin V-FITC/PI flow cytometry); type: cell-based, Human; conditions: HepG2, 80 μg/mL, 24 hours
Description: as §8
Following the incubation of cells in the flasks with drug for 24 hours, cell suspension was harvested with 5×10^5 to 1×10^6 cells/mL, and taken with 1 mL for centrifuging for 10 min at 1000 RPM and 4° C. The supernatant was replaced carefully, added with 1 mL cold phosphate-buffered saline, gently shaken for resuspension, recentrifuged and replaced the supernatant. The cells were resuspended with 200 μl Binding Buffer, added with 10 μl Annexin V-FITC and 5 μl PI, gently shaken and reacted for 15 min at Room temperature, then added with 300 μl Binding Buffer and finally measured immediately with Flow cytometry.

HT29 human colon cancer = test: Anti-HT29 human colon cancer in BALB/c (nu/nu) nude mice; type: in vivo; conditions: for body weight of HT29-bearing nude mice / tumor volume of HT29-bearing nude mice: mg/kg BW: total saponins 1.5, Compound 1, combination 1 & 19, PTX 20, Sc
Description: Human resources Colon cancer cell line HT29 was cultured in the same condition as the experiment 4. […] Mice were randomly assigned into 7 groups: […] The body weight and the tumor volume were measured and recorded weekly. The tumor volume was calculated according to the formula below. […] The tumors were departed and weighed.

Compound: COC(=O)C1CC(O[C@H]2CC[C@]3(C)[C@H]4C=CC5[C@@H]6CC(C)(C)CC[C@]6(C(=O)OC6OC(C)C(OC(=O)/C=C/c7ccc(C)cc7)C(OC(C)=O)C6OC6CC(C)C(O)C(O)C6O)[C@H](O)C[C@@]5(C)[C@]4(C)CC[C@H]3[C@]2(C)C=O)C(OC2OC(CO)C(O)C(O)C2O)C(OC2OCC(O)C(O)C2O)C1O (stereo partly drawn) [Compound (2), sinocrassuloside VII]
- inhibition at 40 µg/mL (A875): 77.5 ± 9.94%
- inhibition at 40 µg/mL (BGC823): > 90%
- inhibition at 40 µg/mL (HT29): > 90%
- inhibition at 40 µg/mL (MCF-7): 91 ± 8.68%
- highest inhibition rate (HepG2 [1]; HepG2, 20-80 μg/mL): above 99%
- IC50 (HepG2 [1]; HepG2, 24 h): 5.25 µM
- inhibition at 5 µg/mL (HepG2 [1]; HepG2, 24 h, read-out: Inhibition Rate, HepG2, 5 μg/ml, 24 h): 13.4 ± 5.76%
- inhibition at 10 µg/mL (HepG2 [1]; HepG2, 24 h, read-out: Inhibition Rate, HepG2, 10 μg/ml, 24 h): > 80%
- inhibition at 20 µg/mL (HepG2 [1]; HepG2, 24 h, read-out: Inhibition Rate, HepG2, 20 μg/ml, 24 h): 92.7 ± 2.43%
- inhibition at 40 µg/mL (HepG2 [1]; HepG2, 24 h, read-out: Inhibition Rate, HepG2, 40 μg/ml, 24 h): 90 ± 2.41%
- inhibition at 80 µg/mL (HepG2 [1]; HepG2, 24 h, read-out: Inhibition Rate, HepG2, 80 μg/ml, 24 h): 94.6 ± 2.59%
- IC50 (HepG2 [1]; HepG2, 48 h): 4.56 µM
- inhibition at 5 µg/mL (HepG2 [1]; HepG2, 48 h, read-out: Inhibition Rate, HepG2, 5 μg/ml, 48 h): 16.6 ± 8%
- inhibition at 10 µg/mL (HepG2 [1]; HepG2, 48 h, read-out: Inhibition Rate, HepG2, 10 μg/ml, 48 h): > 80%
- inhibition at 20 µg/mL (HepG2 [1]; HepG2, 48 h, read-out: Inhibition Rate, HepG2, 20 μg/ml, 48 h): 99.47 ± 0.56%
- inhibition at 40 µg/mL (HepG2 [1]; HepG2, 48 h, read-out: Inhibition Rate, HepG2, 40 μg/ml, 48 h): 98.4 ± 1%
- inhibition at 80 µg/mL (HepG2 [1]; HepG2, 48 h, read-out: Inhibition Rate, HepG2, 80 μg/ml, 48 h): 98.89 ± 0.68%
- early apoptosis signal (HepG2 [2]; control 1.5%): 8.5%
- number of necrotic cells (HepG2 [2]; control 2.0%): 6.6%
- body weight of HT29-bearing nude mice (HT29 human colon cancer; 0 W): 20.10 ± 1.35
- body weight of HT29-bearing nude mice (HT29 human colon cancer; 1 W): 22.10 ± 0.90
- tumor volume of HT29-bearing nude mice (HT29 human colon cancer; 1 W): 639.16 ± 539.16
- body weight of HT29-bearing nude mice (HT29 human colon cancer; 2 W): 22.90 ± 0.90
- tumor volume of HT29-bearing nude mice (HT29 human colon cancer; 2 W): 918.54 ± 469.16
- body weight of HT29-bearing nude mice (HT29 human colon cancer; 3 W): 22.70 ± 1.38
- tumor volume of HT29-bearing nude mice (HT29 human colon cancer; 3 W): 859.24 ± 691.16
- Inhibition rate (HT29 human colon cancer; HT29-bearing nude mice, after 3 weeks, from average tumor mass vs model): 54.87%
